The subject of test [1] is tri-heteromers (GluN2A/GluN2B). Further details: method as in PMID 29682629. Conditions: 2.5 μM ifenprodil; cited from earlier work.
Test [2] concerns GluN2A-containing di-heteromers. Further details: method as in PMID 29682629. As to conditions: 2.5 μM ifenprodil; cited from earlier work.
A further test deals with GluN2B di-heteromers. Further details: method as in PMID 29682629. Conditions: 2.5 μM ifenprodil; cited from earlier work.
Test [3] relates to non-tagged purely di-heteromeric GluN2B-G689S. Conditions: purely variant di-heteromers, previous observations; cited from earlier work.
Test [4] concerns non-tagged purely di-heteromeric GluN2B-G689C. Conditions: purely variant di-heteromers, previous observations; cited from earlier work.
The target of test [5] is Mixed di-heteromeric GluN2B-wt/GluN2B-G689C (Rattus norvegicus, UniProt P35439+Q00960, G689C). Put plainly: TEVC in Xenopus oocytes. Conditions: 5 mM glutamate.
Method: (§2) Two electrode voltage clamp (TEVC) recordings were carried out 24–72 h after mRNA injections, as previously described [17, 37]. We use a commercial amplifier (Warner Instruments, USA) and Digitizer (Digidata-1550B; Molecular Devices, USA), controlled by the pClamp10 software (Molecular Devices, USA). Electrode were made by pulling glass capillaries (Narishige, Japan) filled with 3 M KCl, into which we inserted chlorinated silver wires. […] For hERG channel recordings, oocytes were clamped at (− 60) mV for 1 s, followed by a voltage jump to 20 mV for 4 s, and an additional voltage jump to (− 50) mV for 6 s and return to baseline voltage (see Supplementary. 6f), as previously described [53].
(§3) When assessing potentiation by PS, all other solutions also included equal amounts of the DMSO carrier (0.2%).
Electrophysiology data were analyzed by Clampfit 11.2 (Molecular Devices, USA), plotted using GraphPad 8 or SigmaPlot 11(Systat software, Inc.). […] In all TEVC recordings in oocytes, the responses were normalized to current amplitude obtained from that individual cell. […] All data are shown as mean ± SEM. In all experiments N indicates the number of independent experiments, whereas n indicates the number of cells recorded. In each experiment, data underwent normality test prior to statistical assessment. Normally distributed data were assessed for significance by using paired t-test or one-way ANOVA for multiple group comparison and post hoc Tukey test or Dunnett's test. Similarly, in the case of non-normally distributed data significance was assessed by Mann Whitney test or Kruskal–Wallis ANOVA on ranks test followed by Dunn’s multiple comparison post hoc; n.s., non-significant; *p < 0.05; **p < 0.01; ***p < 0.001. […] Leak expression was evaluated by normalizing the maximal current (Imax) of each ER-retained NMDAR composition to Imax of control group (which was recorded in all experiments). Estimation of activation time constant (τ) for potentiated currents by PS, was performed by fitting PS- potentiated currents with a standard single-exponential function, from which we extracted the time constant (τ).
The target of test [6] is T1, Tri-heteromeric GluN2A-wt/GluN2B-G689C (Rattus norvegicus, UniProt P35439+Q00959+Q00960, A876H/F846L/G689C/G856D/H848F/K857R/M851T/M860L/Q845K/V861L).
T1 construct: expressed in transfected cells; host or cells: Xenopus laevis oocytes, mRNA injection
It counts as cell-based. Conditions: 5 mM glutamate. An excerpt:
(§1) Aliquots were thawed before each experiment.

Test [7] concerns the target T2, Tri-heteromeric GluN2A-wt/GluN2B-G689S (Rattus norvegicus, UniProt P35439+Q00959+Q00960, A876H/F846L/G689S/G856D/H848F/K857R/M851T/M860L/Q845K/V861L).
T2 construct: expressed in transfected cells; host or cells: Xenopus laevis oocytes, mRNA injection
It is filed as cell-based. As to conditions: 5 mM glutamate.
Source text: as §1

Test [8] has as its target T3, GluN2A-wt-containing tri-heteromeric receptors (GluN2B wt or variants) (Rattus norvegicus, UniProt P35439+Q00959+Q00960, A876H/F846L/G856D/H848F/K857R/M851T/M860L/Q845K/V861L).
T3 construct: expressed in transfected cells; host or cells: Xenopus laevis oocytes, mRNA injection
In words: TEVC in Xenopus oocytes, all tri-heteromers. It counts as cell-based.
Source text: as §1

For test [9], the target named is Tri-heteromeric GluN2A-wt/GluN2B-wt (Rattus norvegicus, UniProt P35439+Q00959+Q00960, A876H/F846L/G856D/H848F/K857R/M851T/M860L/Q845K/V861L). Put plainly: TEVC in Xenopus oocytes. Conditions: 5 mM glutamate.
Method: as §2, §3
Electrophysiology data were analyzed by Clampfit 11.2 (Molecular Devices, USA), plotted using GraphPad 8 or SigmaPlot 11(Systat software, Inc.). […] In all TEVC recordings in oocytes, the responses were normalized to current amplitude obtained from that individual cell. […] All data are shown as mean ± SEM. In all experiments N indicates the number of independent experiments, whereas n indicates the number of cells recorded. In each experiment, data underwent normality test prior to statistical assessment. Normally distributed data were assessed for significance by using paired t-test or one-way ANOVA for multiple group comparison and post hoc Tukey test or Dunnett's test. Similarly, in the case of non-normally distributed data significance was assessed by Mann Whitney test or Kruskal–Wallis ANOVA on ranks test followed by Dunn’s multiple comparison post hoc; n.s., non-significant; *p < 0.05; **p < 0.01; ***p < 0.001. […] Leak expression was evaluated by normalizing the maximal current (Imax) of each ER-retained NMDAR composition to Imax of control group (which was recorded in all experiments). […]
In test [10] the target is T4, Mixed di-heteromeric GluN2B-wt/GluN2B-G689S (Rattus norvegicus, UniProt P35439+Q00960, G689S).
T4 construct: expressed in transfected cells; host or cells: Xenopus laevis oocytes, mRNA injection
Put plainly: TEVC in Xenopus oocytes. It is filed as cell-based. As to conditions: 5 mM glutamate.
Source text: as §1

For test [11], the target named is T5, Purely di-heteromeric GluN2B-wt (GluN1-1a-wt + GluN2B-wt-C1/C2) (Rattus norvegicus, UniProt P35439+Q00959+Q00960, A876H/F846L/G856D/H848F/K857R/M851T/M860L/Q845K/V861L).
T5 construct: expressed in transfected cells; host or cells: Xenopus laevis oocytes, mRNA injection
T5 sequence (Q00960+Q00959 fused with the stated changes, other chains not shown): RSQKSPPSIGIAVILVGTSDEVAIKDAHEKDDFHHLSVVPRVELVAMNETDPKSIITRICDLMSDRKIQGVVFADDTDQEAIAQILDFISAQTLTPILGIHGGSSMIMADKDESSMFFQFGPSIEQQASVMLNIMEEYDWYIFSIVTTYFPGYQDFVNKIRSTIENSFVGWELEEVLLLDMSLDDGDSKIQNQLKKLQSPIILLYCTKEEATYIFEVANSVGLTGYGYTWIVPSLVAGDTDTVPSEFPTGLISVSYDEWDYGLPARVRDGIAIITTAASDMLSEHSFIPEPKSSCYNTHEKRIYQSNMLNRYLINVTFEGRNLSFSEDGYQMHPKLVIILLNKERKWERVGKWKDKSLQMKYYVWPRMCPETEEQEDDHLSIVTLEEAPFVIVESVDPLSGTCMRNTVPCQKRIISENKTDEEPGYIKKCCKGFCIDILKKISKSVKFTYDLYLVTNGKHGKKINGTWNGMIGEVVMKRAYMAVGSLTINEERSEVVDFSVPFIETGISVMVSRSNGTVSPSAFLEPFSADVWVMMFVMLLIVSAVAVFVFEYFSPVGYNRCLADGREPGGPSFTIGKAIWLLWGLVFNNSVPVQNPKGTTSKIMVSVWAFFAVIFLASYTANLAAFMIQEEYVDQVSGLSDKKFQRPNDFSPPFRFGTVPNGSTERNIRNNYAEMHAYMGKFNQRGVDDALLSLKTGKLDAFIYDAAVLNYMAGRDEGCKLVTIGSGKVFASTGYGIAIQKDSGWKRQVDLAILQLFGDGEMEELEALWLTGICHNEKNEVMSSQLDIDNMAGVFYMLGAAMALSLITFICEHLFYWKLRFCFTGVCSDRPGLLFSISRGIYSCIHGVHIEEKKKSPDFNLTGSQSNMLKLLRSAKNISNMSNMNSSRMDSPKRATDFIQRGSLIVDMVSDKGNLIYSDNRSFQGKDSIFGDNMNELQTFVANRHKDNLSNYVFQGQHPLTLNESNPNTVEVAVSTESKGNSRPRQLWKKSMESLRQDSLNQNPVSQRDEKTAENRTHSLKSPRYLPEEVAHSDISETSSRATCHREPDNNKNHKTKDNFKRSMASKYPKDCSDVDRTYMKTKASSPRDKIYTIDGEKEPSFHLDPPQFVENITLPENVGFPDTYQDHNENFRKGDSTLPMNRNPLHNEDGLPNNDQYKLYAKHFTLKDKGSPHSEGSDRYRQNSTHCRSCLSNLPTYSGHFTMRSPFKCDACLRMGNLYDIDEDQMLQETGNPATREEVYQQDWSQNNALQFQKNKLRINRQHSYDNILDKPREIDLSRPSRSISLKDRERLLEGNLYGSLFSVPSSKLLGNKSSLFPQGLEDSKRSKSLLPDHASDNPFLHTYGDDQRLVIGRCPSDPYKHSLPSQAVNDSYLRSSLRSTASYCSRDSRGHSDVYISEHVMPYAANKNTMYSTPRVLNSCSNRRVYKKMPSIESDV
Put plainly: TEVC in Xenopus oocytes. It is filed as cell-based. Conditions: 5 mM glutamate.
Source text: as §1

Test [12] deals with GluN2C- and GluN2D-containing di-heteromers. Conditions: cited from earlier work.
Test [13] has as its system NMDAR-dependent currents in cultured hippocampal neurons (naive or overexpressing GluN2B-wt, GluN2B-G689C, GluN2B-G689S). In words: Whole cell patch clamp of primary cultured hippocampal neurons. It counts as cell-based, rat. The method, then:
Cultures of hippocampal primary neurons were established as previously stated. Briefly, extracted rat neonates (P0) hippocampi were dissociated and plated onto 12 mm poly-D-lysine (Sigma-Aldrich, Cat. #P6407)- treated glass coverslips. Cultures were then maintained in an enriched growth media and grown at 37 °C and 5% CO2. Following five days in-vitro (DIV), growth medium was supplemented with 4 μM cytosine-arabinoside (ARA-C) to suppress glia proliferation. At nine DIV, neurons were co-transfected using the calcium-phosphate method with 2 different plasmids: 0.3 μg DNA of eYFP and 2 μg GluN2B-wt or GluN2B-G689C or GluN2B-G689S. To avoid recordings from cells transfected only with the fluorescent reporter, the ratio between the different plasmids during co-transfection favored the plasmids encoding GluN2B-wt/G689C/G689S. Recordings were performed four to seven days past transfection.
We patched YFP-positive neurons at 13–18 DIV. YFP was excited by X-Cite LED illuminator (Excelitas Technologies). Electrode were made by pulling glass capillaries to resistance of 5–10 MΩ. Electrodes were filled with an intracellular solution containing (in mM): 135 K-gluconate, 10 NaCl, 10 HEPES, 2 MgCl2, 2 Mg^2+-ATP, 1 EGTA, pH adjusted to 7.3 with KOH. Patch-clamp recordings were performed with Axon MultiClamp 700B amplifier and Axon Digidata 1440A acquisition system. In all experiments, recordings were performed using a 10 kHz sampling rate and low pass filter. Neurons were clamped at (-70) mV. […] Cells were recorded for ~ 3 min. For assessing the total NMDAR-dependent current (Imax), neurons were then perfused with extracellular solution (see above) supplemented with 100 μM of NMDA (Alomone labs, Cat #: N-170) for exclusive activation of NMDARs. Potentiation was assessed by perfusing cells with the extracellular solution along with 100 μM NMDA and 100 μM of PS (Cat. #P162) in 0.2% DMSO. […] Cells that didn’t reach steady-state after application of 100 μM NMDA were excluded from analysis. Extent of potentiation by PS was evaluated at steady-state.
Background: In patch-clamp work, channel activity is measured electrically.

Test [14] concerns the target T6, Purely wt or mixed di-heteromeric receptors containing GluN2B-subunits (Rattus norvegicus, UniProt P35439+Q00959+Q00960, A876H/F846L/G856D/H848F/K857R/M851T/M860L/Q845K/V861L).
T6 construct: expressed in transfected cells; host or cells: Xenopus laevis oocytes, mRNA injection
Put plainly: TEVC in Xenopus oocytes, wt and mixed di-heteromers. It counts as cell-based. Conditions: 100 µM PS.
Source text: as §1

The target of test [15] is T7, Purely di-heteromeric GluN2B-G689S (C1/C2) (Rattus norvegicus, UniProt P35439+Q00959+Q00960, A876H/F846L/G689S/G856D/H848F/K857R/M851T/M860L/Q845K/V861L).
T7 construct: expressed in transfected cells; host or cells: Xenopus laevis oocytes, mRNA injection
In words: TEVC in Xenopus oocytes. It is filed as cell-based.
Source text: as §1

Test [16] addresses T8, Purely di-heteromeric GluN2B-G689C (C1/C2) (Rattus norvegicus, UniProt P35439+Q00959+Q00960, A876H/F846L/G689C/G856D/H848F/K857R/M851T/M860L/Q845K/V861L).
T8 construct: expressed in transfected cells; host or cells: Xenopus laevis oocytes, mRNA injection
Put plainly: TEVC in Xenopus oocytes. It is filed as cell-based.
Source text: as §1

The test system of the next test is GABAA receptor. Also on record: method as in PMID 34339523. Conditions: cited from earlier work.
The target of test [17] is di- or tri-heteromeric NMDA receptors (Rattus norvegicus, UniProt P35439+Q00959+Q00960, A876H/F846L/G856D/H848F/K857R/M851T/M860L/Q845K/V861L). As to conditions: 0.1-10 μM olanzapine, 5 mM glutamate, 100 μM glycine.
Source text: as §1

The subject of test [18] is GluN2B-G689C and GluN2B-G689S variant receptors. Also on record: method as in PMID 34212862, PMID 37369021. Conditions: cited from earlier work.
The test system of test [19] is synaptic NMDARs in cultured hippocampal neurons. Put plainly: Fraction of extrasynaptic NMDARs with MK-801, hippocampal neurons. It is filed as cell-based, rat. As to conditions: 1 μM MK-801 10 min, 100 μM NMDA. Here is the method:
Evaluation of the fraction of extrasynaptic NMDARs was done as previously described. Briefly, neurons were initially perfused with extracellular solution (see above) supplemented with 100 μM of NMDA to assess the total (synaptic and extrasynaptic) NMDAR-dependent current. Subsequently, the 100 μM of NMDA was thoroughly washed for 2 min (to refrain from activation of NMDAR by remaining NMDA), then neurons were perfused with the extracellular solution supplemented with 1 μM MK-801 for 10 min to exclusively block synaptic receptors (which are activated by action-potential independent miniature neurotransmission). Extrasynaptic NMDAR-dependent currents were then measured by washing the cells from excess MK-801 for 2 min followed by a second application of 100 μM NMDA. Evaluation of the fraction of the extrasynaptic NMDARs was done by dividing the maximal current remaining after MK-801 application by the current obtained before the MK-801 treatment.

The test system of the next test is GABAA receptors. Also on record: method as in PMID 24174662. Conditions: cited from earlier work.
In another test the test system is all NMDAR-subtypes. Further details: method as in PMID 24174662. As to conditions: cited from earlier work.

The source of these data is paper PMC11127902, “Rescuing tri-heteromeric NMDA receptor function: the potential of pregnenolone-sulfate in loss-of-function GRIN2B variants” (Cellular and Molecular Life Sciences: CMLS, 2024).

T3 sequence (Q00959 23-1464, other chains not shown): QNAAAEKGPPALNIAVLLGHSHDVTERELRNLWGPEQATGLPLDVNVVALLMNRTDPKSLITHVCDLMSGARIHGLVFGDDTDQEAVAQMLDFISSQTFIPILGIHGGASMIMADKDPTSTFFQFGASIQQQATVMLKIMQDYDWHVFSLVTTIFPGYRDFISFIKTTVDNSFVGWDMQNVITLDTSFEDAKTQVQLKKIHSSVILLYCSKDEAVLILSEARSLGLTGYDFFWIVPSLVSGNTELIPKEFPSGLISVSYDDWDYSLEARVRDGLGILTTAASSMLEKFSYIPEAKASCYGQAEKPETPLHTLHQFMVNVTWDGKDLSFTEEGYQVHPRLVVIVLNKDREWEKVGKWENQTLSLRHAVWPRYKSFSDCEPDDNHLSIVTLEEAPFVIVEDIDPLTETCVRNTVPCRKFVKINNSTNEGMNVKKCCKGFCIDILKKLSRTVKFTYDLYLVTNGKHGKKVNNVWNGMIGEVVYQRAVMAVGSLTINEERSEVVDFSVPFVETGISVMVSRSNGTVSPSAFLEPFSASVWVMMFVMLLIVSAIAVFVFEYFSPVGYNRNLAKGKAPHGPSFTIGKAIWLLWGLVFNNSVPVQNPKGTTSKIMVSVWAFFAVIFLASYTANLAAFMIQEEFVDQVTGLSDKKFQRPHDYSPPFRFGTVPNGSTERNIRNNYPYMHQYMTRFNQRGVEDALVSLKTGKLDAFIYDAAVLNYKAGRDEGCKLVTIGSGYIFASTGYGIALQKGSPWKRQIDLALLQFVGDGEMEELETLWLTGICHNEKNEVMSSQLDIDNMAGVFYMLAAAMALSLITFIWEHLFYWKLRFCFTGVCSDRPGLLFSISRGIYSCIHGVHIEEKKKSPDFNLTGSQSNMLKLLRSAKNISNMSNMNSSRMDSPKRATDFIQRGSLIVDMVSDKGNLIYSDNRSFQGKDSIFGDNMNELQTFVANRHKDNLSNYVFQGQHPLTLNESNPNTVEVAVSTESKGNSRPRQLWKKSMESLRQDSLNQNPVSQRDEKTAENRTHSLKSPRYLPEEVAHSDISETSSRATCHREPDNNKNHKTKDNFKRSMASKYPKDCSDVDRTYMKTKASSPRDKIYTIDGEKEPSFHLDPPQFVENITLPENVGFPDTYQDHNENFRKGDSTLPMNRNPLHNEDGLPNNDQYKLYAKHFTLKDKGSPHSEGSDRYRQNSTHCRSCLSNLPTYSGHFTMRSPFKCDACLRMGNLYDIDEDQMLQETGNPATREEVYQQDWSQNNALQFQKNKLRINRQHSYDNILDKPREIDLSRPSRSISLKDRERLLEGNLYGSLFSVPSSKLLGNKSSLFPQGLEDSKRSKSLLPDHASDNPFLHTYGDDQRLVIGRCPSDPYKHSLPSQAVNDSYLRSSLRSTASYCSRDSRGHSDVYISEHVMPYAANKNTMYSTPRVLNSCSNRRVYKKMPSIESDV
T3 sequence (Q00960+Q00959 fused with the stated changes, other chains not shown): as the sequence (Q00960+Q00959 fused with the stated changes, other chains not shown) above

As to `CC(C(O)c1ccc(O)cc1)N1CCC(Cc2ccccc2)CC1` (stereo not drawn) [ifenprodil], the “expected inhibition by ifenprodil” value was less than 40% in test [1], less than 10% in [2] and ~ 85% with GluN2B di-heteromers.
Regarding `NCCCNCCCCNCCCN` [Spermine, spermine], the response to spermine entry in test [3] was “inhibited”; in [4], “poorly responsive”; in test [8] (200 μM spermine, pH 7.3, 5 mM glutamate), “non-responsive”. For the same molecule, the “Spermine Potentiation (Fold change)” value in test [5] (200 μM spermine, pH 7.3) was 1.78 ± 0.51 (N = 2, n = 20) Fold change; in test [6] (200 μM spermine, pH 7.3), 0.70 ± 0.03 n.s (N = 1, n = 10) Fold change; in [7] (200 μM spermine, pH 7.3) it was 0.75 ± 0.02 n.s (N = 2, n = 19) Fold change; in test [9] (200 μM spermine, pH 7.3), 0.73 ± 0.02 (N = 2, n = 12) Fold change; in test [10] (200 μM spermine, pH 7.3), 1.61 ± 0.03 (N = 2, n = 24) Fold change; in test [11] (200 μM spermine, pH 7.3), 1.97 ± 0.56 (N = 3, n = 25) Fold change. The “inhibition by spermine (fold)” value in [8] (all tri-heteromers examined, 200 μM spermine) is listed as 0.75 fold.
Turning to pregnenolone-sulfate [PS], the “PS Potentiation (Fold change)” value in test [5] (100 μM PS) is recorded as 2.78 ± 0.15 n.s. (N = 3, n = 13) Fold change; in test [6] (100 μM PS), 2.12 ± 0.10 n.s (N = 3, n = 13) Fold change; in test [7] (100 μM PS), 2.02 ± 0.06 n.s (N = 2, n = 13) Fold change; in test [9] (100 μM PS), 1.87 ± 0.04 (N = 4, n = 30) Fold change; in [15] (100 μM PS, 5 mM glutamate) it was 4.68 ± 0.19 (N = 3, n = 23) Fold change; in test [10] (100 μM PS) it was 2.99 ± 0.10 n.s (N = 3, n = 20) Fold change. Besides, the “PS Potentiation (Fold change)” value is on record as 3.96 ± 0.14 (N = 3, n = 18) Fold change in test [16] (100 μM PS, 5 mM glutamate) and 3.03 ± 0.13 (N = 3, n = 16) Fold change in test [11] (100 μM PS). In addition, the “potentiation by PS (fold increase)” value is “~ twofold” in [8] (100 µM PS, all tri-heteromeric types, wt or GluN2B variants); “~ threefold” in [14]; “~ fivefold” in test [15] (100 µM PS); “~ fourfold” in test [16] (100 µM PS). Besides, the “mode of action of PS” value (in [12]; in the test with GABAA receptor) was “negative allosteric modulator (NAM)” throughout. Also, the “effect of PS on Imax” value in [13] (100 μM PS with 100 μM NMDA, 50 μM glycine, all groups) was “increased Imax of neurons from all groups”. Also, the “effect of PS on NMDAR-current without added NMDA” value in test [13] (100 μM PS, no NMDA added) is listed as “enhanced the overall NMDAR-current”. Besides, the “extent of potentiation (fold) by PS” value in [13] (100 μM PS, neurons overexpressing the variants vs naive or GluN2B-wt) is listed as “significantly larger”.
For the molecule `Cc1cc2c(s1)Nc1ccccc1N=C2N1CCN(C)CC1` [olanzapine], in [17], the “direct effect of olanzapine on NMDAR currents” value is “no evidence for any direct effect”.
As to `C[C@]12N[C@H](Cc3ccccc31)c1ccccc12` [MK-801], the “block by MK-801” value in test [18] is “efficiently and potently blocks both variant receptors”. The “extrasynaptic fraction (current remaining after MK-801)” value in [19] (neurons overexpressing GluN2B-wt) was 38%. Also, the “fraction of remaining current after MK-801” value in test [19] (neurons overexpressing the variants) was ~ 50%.
For the molecule `CC(C)[C@@H](O)CC[C@@H](C)[C@H]1CC[C@H]2[C@@H]3CC=C4C[C@@H](O)CC[C@]4(C)[C@H]3CC[C@]12C` [24(S)-HC, 24(S)-hydroxycholesterol], the “effect of 24(S)-HC” value with GABAA receptors is given as “no known effect”. Besides, in the test with all NMDAR-subtypes, the “potentiation by 24(S)-HC” value is on record as “can potentiate all NMDAR-subtypes alike”.
